Measured values reported in PubChem BioAssay AID850 (SRMLSC, 2007).
Calls of active or inactive are those of the source. No rule for the calls is given here.

Tests used:
[1] = tested on: Saccharomyces cerevisiae growth inhibition, permissive control; assay: concentration-response yeast growth inhibition under permissive conditions, counter-assay for yeast lifespan-shortening chemical project (AID 850);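 also: growth read as optical density after one day of incubation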
[2] = as above; details: Saccharomyces cerevisiae growth inhibition, permissive control, measured here: maximum growth inhibition, stronger effect = higher value

Row | SMILES | inhibition ([2]; at 50 µM) | further results
1 | CC(C)Sc1nc(N)nc(-c2cccs2)c1C#N |  | IC50 [1]: > 100 µM (inactive); inhibition ([2]; at 1.563 µM): 14.6%
2 | O=C1Cc2ccccc2C(=O)N1CCc1ccccc1 |  | IC50 [1]: > 100 µM (inactive); inhibition ([2]; at 0.781 µM): 20.7%
3 | Cc1ccc(CNC(=O)CS(=O)Cc2nc(-c3cccs3)oc2C)cc1 (stereo not given) |  | IC50 [1]: > 100 µM (inactive); inhibition ([2]; at 0.391 µM): 13.8%
4 | Oc1c(N=Nc2ccccn2)ccc2ccccc12 |  | IC50 [1]: 11.5 µM; inhibition ([2]; at 25 µM): 98.2%
5 | COC(=O)CSC1=NS(=O)(=O)c2ccccc21 |  | IC50 [1]: > 100 µM (inactive); inhibition ([2]; at 12.5 µM): 27.4%
6 | CCOC(=O)c1cnc(-n2nc(C)cc2C)nc1NCCc1ccccc1 | 17.4% | IC50 [1]: > 100 µM (inactive)
7 | NNC(=O)c1cccc(COc2ccc3c(c2)CCC3)c1 | 71% | IC50 [1]: 33.3 µM
8 | CCC(C)/C(C)=N/NC(=O)c1ccc(COc2ccc(Cl)c(C)c2)cc1 (stereo not given) | 83.8% | IC50 [1]: 27 µM
9 | Cn1c(SCC(=O)N/N=C/c2ccc([N+](=O)[O-])s2)nnc1-c1ccc(Cl)cc1 | 99.2% | IC50 [1]: 29.7 µM
10 | O=C(CN1CCN(c2ncc(C(F)(F)F)cc2Cl)CC1)NCCNc1ncc(C(F)(F)F)cc1Cl | 38.3% | 
11 | O=C(O)c1cc2c(ccc3ccccc32)oc1=O | 38.3% | 
12 | CS(=O)(=O)N1CCN(C(=O)c2ccccc2F)CC1 |  | inhibition ([2]; at 3.125 µM): 34.8%
13 | O=c1c2c([N+](=O)[O-])cc([N+](=O)[O-])cc2sn1-c1ccc(Br)cc1 |  | inhibition ([2]; at 25 µM): 36.1%
14 | O=c1c2cccc3c2c(nn1CN1CCOCC1)-c1ccccc1-3 | 47.5% | 
15 | Oc1c(Cl)cc(Cl)cc1Sc1cc(Cl)cc(Cl)c1O |  | inhibition ([2]; at 25 µM): 40.3%
16 | c1ccc(-c2ccc(-c3ccccn3)nn2)nc1 | 36.1% | 
17 | CC(=O)N1N=C(c2ccc(Cl)cc2)OC1(C)C |  | inhibition ([2]; at 3.125 µM): 41%
18 | CCc1ccc2c(c1)C1(NN=C(c3cccc4ccccc34)S1)C(=O)N2 (stereo not given) | 32.3% | 
19 | Oc1ccccc1NCC(O)Cn1ccc2ccccc21 (stereo not given) | 30.2% | 
20 | O=C(O)Cc1cc(I)c(Oc2ccc(O)c(I)c2)c(I)c1 | 38.6% | 
21 | CN1CCN(Cc2cc(COCc3ccccc3)c3cccnc3c2O)CC1 | 51.7% | 
22 | Cc1nn(-c2ccccc2)c2sc(C(=O)O)cc12 | 41.3% | 

Row | SMILES | inhibition ([2]; at 50 µM) | further results
23 | Cc1onc(-c2ccccc2)c1C(=O)NC(=S)NNC(=O)c1ccc(O)cc1O |  | inhibition ([2]; at 12.5 µM): 44.7%
24 | Cc1nn(-c2ccccc2)c2sc(-c3n[nH]c(=S)o3)cc12 | 36.1% | 
25 | c1cc2c(cc1C1CCCCC1)c1c3n2CCCNC3CCC1 (stereo not given) | 38.7% | 
26 | N/C(=N\OC(=O)c1ccc(Cl)cc1Cl)c1ccccc1 |  | inhibition ([2]; at 12.5 µM): 32.3%
27 | NNC(=O)c1cccc(COc2ccc(Br)cc2)c1 | 54.5% | 
28 | Cc1ccc(C(=O)/C=C/c2cn(CN3CCN(C)CC3)c3ccccc23)cc1 | 34.5% | 
29 | Cc1cc(C)c2c(N=NN(C)C)[nH]nc2n1 |  | inhibition ([2]; at 25 µM): 35.6%
30 | CCOc1ccc(/C=C/[N+](=O)[O-])c2ccccc12 | 33.5% | 
31 | CCCCn1c(=O)c(C(=O)NCc2ccncc2)c(O)c2ccccc21 | 41.3% | 
32 | O=S(=O)(Nc1ccc(-c2csc(-c3ccccc3)n2)cc1)c1ccc(F)cc1 |  | inhibition ([2]; at 3.125 µM): 34.3%
33 | COc1ccc2nc(NC(=S)N(C)C)sc2c1 |  | inhibition ([2]; at 12.5 µM): 35%
34 | Cc1cc(OCc2ccc(C(=O)NN=C3CCCC3)cc2)ccc1Cl | 54.2% | 
35 | Cc1cc2sc(C(=O)O)c(C)c2s1 | 57.7% | 
36 | CCCOC(=O)c1ccc(Oc2cn[nH]c2-c2ccc(OC)cc2O)cc1 | 32.4% | 
37 | Cc1cccc(Cn2ncc(Cl)c(Cl)c2=O)c1 | 31.1% | 
38 | CC1CCc2c(sc3nc(CN4CCOCC4)nc(Sc4ccccc4)c23)C1 (stereo not given) | 33.9% | 
39 | CCOc1cc(CNCCO)cc(Br)c1OCc1ccc(Cl)cc1Cl | 46.1% | 
40 | OCCN(CCO)CC(O)COc1ccc(C23CC4CC(CC(C4)C2)C3)cc1 (stereo not given) |  | inhibition ([2]; at 25 µM): 35.6%
41 | O=C(Cc1cccs1)NNC(=S)NC(=O)c1ccccc1 |  | inhibition ([2]; at 25 µM): 41%
42 | COc1ccc(N/N=C(\C#N)C(N)=O)cc1 |  | inhibition ([2]; at 25 µM): 36.4%
43 | COc1cccc(/C=N/N2C(=O)CSC2=S)c1O | 34.1% | 
44 | CCCCCC1CCC(C(=O)O)CC1 (stereo not given) | 51.8% | 

Row | SMILES | inhibition ([2]; at 50 µM) | further results
45 | Clc1ccc2nnnc(-c3ccccc3)c2c1 | 37.5% | 
46 | O=c1cccc2n1Cc1cc3ccccc3nc1-2 | 32.4% | 
47 | Cn1c2ccccc2c(=O)n2c(=O)c3ccccc3cc12 |  | inhibition ([2]; at 12.5 µM): 30.2%
48 | C=CCSC(=C(C#N)C#N)c1cc2c([nH]1)CCCC2 | 32.9% | 
49 | OCc1ccc(O)c2ncccc12 | 33.1% | 
50 | CC(C)N=c1scc(-c2ccco2)n1/N=C/c1ccc(O)c(O)c1 | 36.7% | 
51 | O=C(c1c[nH]c(C(=O)C(Cl)(Cl)Cl)c1)c1ccccc1Cl |  | inhibition ([2]; at 25 µM): 46.3%
52 | Nc1cccc2nc3ccccc3cc12 |  | inhibition ([2]; at 25 µM): 38.6%
53 | O=c1c2ccccc2nc2sc3ccccc3n12 | 38.4% | 
54 | Cc1ccc2nc(-c3ccc(NS(=O)(=O)c4ccc(F)c(F)c4)cc3)sc2c1 |  | inhibition ([2]; at 12.5 µM): 39.1%
55 | O=C1CN(CC(=O)N2CCCCC2)c2ccccc2O1 | 37.7% | 
56 | Cc1cc(N2CCN(C(=O)c3ccco3)CC2)n2ncc(-c3ccccc3)c2n1 | 51.7% | 
57 | Cc1cccc(OCCCOc2cccc3cccnc23)c1C | 33.1% | 
58 | COc1ccc2[nH]c3c(Cl)ncnc3c2c1 | 35.5% | 
59 | Cc1c2cc(O)c(=O)cc-2oc2cc(O)c(O)cc12 |  | inhibition ([2]; at 25 µM): 39.9%
60 | CCc1cc2c(cc(C(=O)O)n2C)s1 |  | inhibition ([2]; at 25 µM): 48.3%
61 | CCOC(=O)c1cnc(-n2nc(C)cc2C)nc1NNc1cc(C)nc(-c2ccccc2)n1 | 48.1% | 
62 | O=C(OCn1ncc(Cl)c(Cl)c1=O)c1ccccc1Cl | 54.5% | 
63 | Cc1cc2c(cc(C(=O)O)n2C)s1 | 34.3% | 
64 | COc1ccc(NCc2ccc([N+](=O)[O-])s2)c(OC)c1 | 43.9% | 
65 | O=[N+]([O-])c1ccc(N=Nc2ccc(O)cc2O)cc1 | 36.3% | 
66 | Cc1ccc(O)c(C(=O)CC(=O)c2cccc(F)c2)c1 | 44.8% | 

Row | SMILES | inhibition ([2]; at 50 µM) | further results
67 | O=C(NC(Nc1nc2ccc([N+](=O)[O-])cc2s1)(C(F)(F)F)C(F)(F)F)c1ccccc1 | 34.1% | 
68 | COC(=O)c1ccc2c(c1O)C(=O)c1ccccc1C2=O | 57.6% | 
69 | O=C(N/N=C1\CC2CC=CC12)c1ccc(COc2ccccc2)cc1 (stereo not given) | 35.1% | 
70 | O=Nc1c2nc3ccccc3n(O)c-2c2ccccc12 | 37.8% | 
71 | O=C1c2ccccc2C(=O)C1c1ccc2ccccc2n1 |  | inhibition ([2]; at 25 µM): 30.6%
72 | CCCCc1ccc(NS(=O)(=O)c2cccs2)cc1 | 34.1% | 
73 | CCCOC(=O)c1ccc(Oc2cn[nH]c2-c2ccc(OCC)cc2O)cc1 |  | inhibition ([2]; at 3.125 µM): 34.6%
74 | Cn1c(=O)c2nc(-c3ccccc3)oc2c2ccccc21 | 38.2% | 
75 | Cc1ccc(N2CCOCC2)c2c1C(=O)c1ccccc1C2=O | 32.3% | 
76 | CC(=O)c1c(C)oc2c1C(=O)c1ccccc1C2=O | 39.7% | 
77 | COc1ccc(-n2c(Cc3cccn3C)nnc2SCC(=O)N2CCCC2)cc1 |  | inhibition ([2]; at 12.5 µM): 37.7%
78 | Cc1ccc(N=Nc2ccc(O)c3ncccc23)cc1 | 30.3% | 
79 | COc1cc(/C=C2/C(=O)ON=C2c2ccccc2)ccc1O | 45.6% | 
80 | Cc1cc(C)c2c(N=NN3CCCCC3)[nH]nc2n1 |  | inhibition ([2]; at 25 µM): 39.3%
81 | O=S(=O)(Nc1ccc(-c2nc3ccccc3o2)cc1)c1ccccc1 | 30.1% | 
82 | N#CCSc1nc2ccccc2c2nc3ccccc3n12 |  | inhibition ([2]; at 25 µM): 39.2%
83 | CCOc1ccc(NCc2nc3ccccc3n2CCOc2ccccc2)cc1 | 30.3% | 
84 | O=[N+]([O-])c1ccc(C2Oc3ccccc3C3CC(c4ccccc4)=NN32)s1 (stereo not given) | 45% | 
85 | Cc1ccc2nc(-c3ccc(NS(=O)(=O)c4ccc(F)cc4)cc3)sc2c1 | 42.9% | 
86 | O=C(CCCSc1ccccc1)Nc1nc(-c2ccccn2)cs1 | 39% | 
